We go through ten molecules from patent US4153709A, “N-Heterocyclic ureas as immune regulants” (Eli Lilly and Company, priority 1977, dated 1979).

Series [1] concerns Salmonella typhimurium G46 missense histidine-auxotroph. The class given is cell-based. The procedure: Compounds found active in the qualitative test were further tested. The culture to be tested was grown to stationary phase in tryptone yeast broth and then diluted to a viable count of about 9×10^7 organisms per milliliter.
Eleven log4 dilutions of the test compound were made covering a range that would allow survival of nonlethal mutants. The dilutions were made in Spizizen's minimal media with minute amounts of histidine and biotin (20 nM) each in […]. tubes. Each tube contained 3 ml. after dilution. Replicate 1 ml. aliquots of test organism were added to each tube including six "0" drug tubes. Final drug concentrations were calculated from 4-ml. volumes (3 ml. drug dilution +1 ml. test organism). Two of the "0" drug tubes were immediately plated at 10° dilution in minimal medium and 10^-5, 10^-6, 10^-7 dilutions in medium containing excess histidine (40 mcg/ml.) Spontaneous revertants (histidine+) were detected in the 10° dilution. Mutable population (histidine-) were detected in the 10^-5, 10^-6, and 10^-7 dilutions. All remaining dilutions were incubated in a Dubonoff shaker at 37° C. for 4 hr., then iced at 4° C. […] A 1-ml. aliquot from each "0" control was also plated at 10^-6, 10^-7, and 10^-8 dilutions in media with excess histidine to detect growth of mutable population (histidine-); normally there are 3-4 generations of the mutable population. All minimal media plates were counted. A dose response increase in revertants above spontaneous background indicated mutagenic potential of a test compound. […] Lethality has occurred to both populations, histidine+ and histidine-, at the same compound levels in all drugs tested to date.
The results are recorded as mutants test/mutants control.

For series [2] the test system is unchanged. The experiment in a line: Host mediated assay (in vivo mutagenicity), G46 indicator (Table 22). Set-up: species or system Salmonella typhimurium in Cox white Swiss male mice. Here is the method:
Cox white Swiss male mice 25-30 grams were used in all in vivo tests.
A. Drug Administration: Appropriate solvents were used where applicable with a solvent control run within each test. […] The organisms were grown to stationary phase, then diluted with normal saline to give an inoculum near 1×10^8 organisms per milliliter. The abdominal area of the drug-treated mouse was swabbed with alcohol and two milliliters of bacterial culture were injected into the abdominal cavity of the mouse. The mice were returned to their cages for 3-4 hours.
C. Autopsy and Recovery: The mice were sacrificed individually by cervical dislocation prior to each autopsy. The abdominal areas were soaked with ethanol. The peritoneum was bared and 2.5 ml. of sterile normal saline was injected into the peritoneal cavity using a sterile (3-ml. plastic syringe with a 20-gauge needle. After insertion, the needle is turned bevel up and the saline was expelled into the cavity; while the needle remains through the peritoneum, keeping the point of the needle in sight pressed against the peritoneal wall, the abdomen of the mouse was massaged to mix contents. The saline wash was removed from the abdominal cavity back into the syringe. The needle was removed and the contents expelled into an appropriately marked tube and iced 4° C.
D. Dilution and Plating: One-ml. samples were plated at 10° dilution on all mice to determine revertants (histidine+).
A one-milliliter sample from the untreated dilutions from control animals is plated 10^-6, 10^-7, and 10^-8 dilutions with excess histidine to determine mutable population (histidine-).

The test system is the same in series [3]. The experiment in a line: Qualitative in vitro prescreen for mutagenicity, G46 indicator (Table 22). As to conditions: 200 mcg disc.
From the text: Filter paper discs 1/4" were impregnated with 200 mcg of test compound using either H2 O or DMSO as solvent. The discs were placed on Petri dishes containing minimal media which had been individually seeded with one of the twelve tester strains. […] A uniform circle of colonies appear around the pad when a compound with mutagenic potential is present. The test compound forms a concentration gradient as it diffuses from the pad. Occasionally, there is a clear ring in close proximity to the pad surrounded by a uniform circle of revertant colonies which indicates a lethal mutation at high concentration of compound and nonlethal mutation at lesser concentration. A single pad thus allows one to test a compound over a wide range of concentrations. Histidine+ colonies were developed enough to read after 48 hr. incubation at 37° C. The plates were read as follows:
A. background zone, if present, is measured in millimeters, if not, a negative is recorded (-).
B. mutant zone is measured in millimiters, if present; if not, a negative (-) is recorded.
C. the mutation frequency can be estimated from density of mutant colonies as follows:
1. Low frequency--few colonies
2. Moderate frequency--many colonies
3. High frequency--dense ring of colonies
4. No colonies recorded (-)
Series [4] concerns antibody to sheep red blood cells. The series is described as follows: 75 percent reduction of control antibody titer in mice by subcutaneous, percutaneous and oral routes (Table 16). As to conditions: Mus musculus, Erythrocyte. The class given is in vivo, male Swiss mice. The procedure:
Subcutaneous, percutaneous, and oral activity have been achieved as indicated in Table 16 which follows employing representative compounds from the above entitled application. […] Except as indicated, the tests were performed using groups of five 20-gram male Swiss mice injected with 5×10^7 sheep red blood cells intravenously for each drug level. Ten (daily) administrations of drug were made commencing three days prior to red blood cell injection. On the day following the final treatment (7 days after red blood cell injection) the animals were bled by cardiac puncture, the sera from each five-mouse-group were pooled, and antibody titers of these serum pools and corresponding serum pools from control (untreated) mouse groups were determined. The results are expressed as the minimum drug dose effecting 75 percent reduction of control antibody titer: […]

In series [5] the test system is graft versus host reaction. The series is described as follows: Graft versus host (GVH) reaction, spleen weight (Tables 20, 21). The class given is in vivo, mice (C57BL donors, F1 hybrid C57BL×C3H recipients). Here is the method: In this determination, […] (C57BL) mouse spleen cells are injected into mice of an F1 hybrid strain (C57BL×C3H). […] The injected cells, however, mount a reaction to the recipient's tissues due to the foreign C3H-derived antigens. As a consequence, the recipient's spleen becomes enlarged. Immunosuppressive therapy prevents or reduces this enlargement. Thus, spleen weights provide a measure of the GVH reaction and its reduction under immunosuppression.
Treated and GVH control animals receive an intraperitoneal injection of 1.2×10^9 splenic lymphocytes from the C57 donors. Spleens are weighed ten days later. Spleen weights derived from groups of recipient mice receiving genetically homologous, i.e., syngeneic cells (C57BL×C3H) provide normal control values for calculating percent inhibition in drug-treated groups. For example, mice given 13 daily topical doses of 1-(4,5,6,7-tetra-hydro-2-benzothiazolyl)-3-phenyl urea show a 62% reduction in GVH reaction relative to controls, as set forth in Table 20.
Using this procedure, three compounds from the above useful in the processes of this invention have been compared with several reference immunosuppressive drugs. Treatment levels defining the 50 percent inhibitory dose have been determined.

The test system of a further series is neoplasms in NZBxW mice. Particulars: Walker and Bole, J. Lab. Clin. Med. 82,619 (1972); control 5 percent; cited from earlier work.
The test system of series [6] is antibody response to sheep blood cells (hemaglutination titer). The experiment in a line: Immune regulating test: suppression of hemaglutination titer by 4-fold factor in mice (i.p. drug, i.p. sheep blood cells), Tables 1-15. As to conditions: Mus musculus, ip, 192 h, × 3, intraperitoneal, minimum dose to suppress the hemaglutination titer by a 4-fold factor, 8 days after antigen, read-out: Immuno-Suppressant ED4-Fold. The class given is in vivo, Swiss mice. The procedure: The ability of compounds according to the above formulas to alter immune mechanisms in a host animal was measured by their activity according to the following test. Groups of five 20-gram Swiss mice were injected intraperitoneally with standardized suspensions of an antigen--in this instance sheep blook cells. […] Eight days after injection of the antigen, the mice were bled and the sera from each group pooled. Antibody determinations were made on the serum pools by a hemaglutination pattern procedure and comparisons made between treated and control animals. In Tables 1-18 which follow, the activity of the compounds listed therein is given in terms of the minimum dose of drug necessary to suppress the hemaglutination titer by a 4-fold factor in the treated mice as compared with control titers.

Series [7] concerns antibody to the sheep red blood cell antigen. The experiment in a line: Antibody response to sheep red blood cells in marmosets, injected drug. Type of series: in vivo. Particulars: 25 mg/kg daily for three days. Here is the method: In order to determine if the compounds disclosed herein had immunoalterant activity in a primate species, representative numbers of the series were tested in marmosets. 1-(2-Fluorophenyl)-3-(6-methoxy-2-benzothiazolyl) urea was injected in 25 mg/kg doses daily for three days into five marmosets. A similar group of five untreated marmosets was reserved as a control series. On the day following the third treatment, all animals received intraperitoneal injections of antigen (1×10^9 sheep red blood cells). On the 7th day following antigen injection, serum levels of antibody to the sheep red blood cell antigen were determined.

The mark [8] stands for this setting: sc, subcutaneous, × 10 daily doses commencing 3 days before antigen i.v., read-out: Lowest Dose Producing 75% Immunosuppression, Subcutaneous.
The mark [9] stands for this setting: percutaneous, × 10 daily doses commencing 3 days before antigen i.v., read-out: Lowest Dose Producing 75% Immunosuppression, Percutaneous.
The mark [10] stands for this setting: oral, × 10 daily doses commencing 3 days before antigen i.v., read-out: Lowest Dose Producing 75% Immunosuppression, Oral.
Setting [11] is: 300 mg/kg, s.c., MT/MC of 3 would indicate mutagenic potential.

SMILES strings stand for the structures. Where two headings read alike, the source gives them in different places. Some results are limits rather than exact numbers.

As for `CC(=O)Oc1ccccc1C(=O)O` [ASA, Acetylsalicylic Acid], the “IN VITRO QUANTITATIVE MT/MC” value in series [1] (750 mcg/ml) is “.58”. The “IN VIVO mutants test/mutants control” value in series [2] (30 mg/kg, oral gavage) stood at 1.11; in series [2] (300 mg/kg, oral gavage), 1.06. The “IN VITRO QUALITATIVE ACTIVITY” value in series [3] is given as “N”.

As for `C[C@]12CCC(=O)C=C1CC[C@@H]1[C@@H]2C(=O)C[C@@]2(C)[C@H]1CC[C@]2(O)C(=O)CO` [Cortisone, reference compound], the minimal effective dose in series [4] (setting [8]) was 25 mg/kg; in series [4] (oral, × 10, **antigen given intraperitoneally, read-out: Lowest Dose Producing 75% Immunosuppression, Oral), 200 to 400 mg/kg; in series [4] (setting [9]), 50 mg/kg. For the same molecule, the “Percent GVH Inhibition” value in series [5] (1.56 mg/kg × 13, s.c.) is 48%; in series [5] (3.12 mg/kg × 13, s.c.), 82%.

`O=P1(N(CCCl)CCCl)NCCCO1` (centres unmarked) [Cyclophosphamide, reference compound]: the minimal effective dose in series [4] (setting [10]) and in series [4] (setting [9]) was 25 mg/kg each time. Further, the “Percent GVH Inhibition” value in series [5] (6.25 mg/kg × 13, s.c.) came out at 32%; in series [5] (12.5 mg/kg × 13, s.c.), 53%. In addition, the incidence of neoplasms in the series with neoplasms in NZBxW mice is given as 100%.

Turning to `CN(C)N=O` [DMNA, N-nitrosodimethylamine], in series [1] (750 mcg/ml), the “IN VITRO QUANTITATIVE MT/MC” value is listed as “.33”. Also, the “IN VIVO mutants test/mutants control” value in series [2] (3 mg/kg, s.c.) was determined as 1.16; in series [2] (30 mg/kg, s.c.), 43.6; in series [2] (setting [11]), 620. Moreover, the “requirement of host mediation for mutagenic potential” value in series [2] (mouse, in vivo) is on record as “requiring host-mediation to demonstrate mutagenic potential”. The “IN VITRO QUALITATIVE ACTIVITY” value in series [3] was “N”.

In the case of `CN(N=O)C(=O)N[C@H]1C(O)O[C@H](CO)[C@@H](O)[C@@H]1O` (some centres unmarked) [STREPTOZOTOCIN], in series [1] (.11 mcg/ml), the “IN VITRO QUANTITATIVE MT/MC” value worked out at 6750. Also, the “IN VIVO mutants test/mutants control” value in series [2] (3 mg/kg, s.c.) turned out to be 2782; in series [2] (30 mg/kg, s.c.) it was 444; in series [2] (.03 mg/kg, s.c.) it was 3.35; in series [2] (.3 mg/kg, s.c.) it was 278. In addition, in series [3], the “IN VITRO QUALITATIVE FREQ (mutation frequency)” value is listed as “HIGH”.

Consider `C1CN1c1nc(N2CC2)nc(N2CC2)n1` [TEM, trimethylenemelamine], for which, in series [1] (180 mcg/ml), the “IN VITRO QUANTITATIVE MT/MC” value turned out to be 24. Moreover, the “IN VIVO mutants test/mutants control” value is reported as 13 in series [2] (3 mg/kg, s.c.); 27 in series [2] (30 mg/kg, s.c.); 13 in series [2] (setting [11]); 3.2 in series [2] (.3 mg/kg, s.c.). In addition, the “IN VITRO QUALITATIVE FREQ (mutation frequency)” value in series [3] was “MEDIUM”.

As to `O=C(Nc1ccccc1)Nc1nc2ccccc2[nH]1` [Table 1: phenyl, H, 1-(2-benzimidazolyl)-3-phenyl urea], the minimal effective dose in series [6] was 12.5 mg/kg; in series [4] (sc, subcutaneous, *seven doses, once daily, commencing the day of antigen administration, read-out: Lowest Dose Producing 75% Immunosuppression, Subcutaneous), 31.5 mg/kg.

For the molecule `COc1ccc2nc(NC(=O)Nc3ccccc3F)sc2c1` [Table 11: o-fluorophenyl, 6-CH3 O, S, 1-(2-Fluorophenyl)-3-(6-methoxy-2-benzothiazolyl) urea], the minimal effective dose in series [6] is < 3.1 mg/kg. In addition, in series [7] (injected, five marmosets, 7th day following antigen), the “treated animals showing detectable antibody” value is “only one of the treated animals”. Further, in series [7] (controls titers from 1-10 to 1-80), the “antibody titer of the responding treated animal” value is reported as 1-10.

For the molecule `O=C(Nc1ccccc1)Nc1nc2ccccc2s1` [Table 11: phenyl, H, S, 1-(2-benzothiazolyl)-3-phenyl urea], the minimal effective dose in series [6] was 6.2 mg/kg; in series [4] (setting [8]), 1 mg/kg; in series [4] (setting [10]) it was 25 mg/kg; in series [4] (setting [9]), 6.2 to 12.5 mg/kg. The “Percent GVH Inhibition” value was determined as 29% in series [5] (0.8 mg/kg × 13, s.c.); 46% in series [5] (1.6 mg/kg × 13, oral); 54% in series [5] (1.6 mg/kg × 13, s.c.); 64% in series [5] (3.12 mg/kg × 13, oral).

Regarding `O=C(Nc1ccccc1)Nc1nc2c(s1)CCCC2` [Table 13: phenyl, 1-(4,5,6,7-tetrahydro-2-benzothiazolyl)-3-phenyl urea], the minimal effective dose is 25 mg/kg in series [6], 12.5 mg/kg in series [4] (setting [8]), 25 to 100 mg/kg in series [4] (setting [10]) and 3.1 mg/kg in series [4] (setting [9]). Moreover, the “Percent GVH Inhibition” value in series [5] (50 mg/kg × 13, oral) is recorded as 41%; in series [5] (100 mg/kg × 13, oral), 54%. Further, the “Percent Inhibition of GVH reaction” value in series [5] (100 mg/kg × 13, daily topical) is reported as 62%. Further, the “Mg Spleen/g Body Weight ± S.E.” value in series [5] (100 mg/kg × 13, daily topical, GVH control 11.03 ± 0.35, syn. control 5.20 ± 0.37) amounted to 7.42 ± 0.63 Mg Spleen/g Body Weight.
